Patent US20250206751A1, “HETEROCYCLIC COMPOUND FOR INDUCING DEGRADATION OF G12D MUTANT KRAS PROTEIN” (Astellas Pharma Inc., priority 2022, published 2025)

Legend:
KRAS G12D protein = biological target: T1, KRAS G12D protein (Homo sapiens, UniProt P01116, G12D); assay: KRAS degradation activity by Cell ELISA in AsPC-1 (Test Example 1); format: cell-based; conditions: AsPC-1 cells, cultured overnight with compound, corrected with β-actin, read-out: DC50 (50% degradation concentration of the amounts of KRAS)
T1 construct: host or cells: AsPC-1
Procedure: Test Example 1: Evaluation of KRAS Degradation Activity on Human G12D Mutant KRAS-Positive Pancreatic Cancer Line AsPC-1 (CRL-1682; ATCC)
The KRAS degradation activity of test compounds was evaluated by measuring the expression levels of KRAS G12D protein by Cell ELISA.
AsPC-1 cells were seeded at 20 μL per well on 384-well plates (from Greiner bio-one) to give 2.0×10^4 cells per well. As for the cell culture conditions, RPMI 1640 (from Sigma-Aldrich) medium containing 10% fetal bovine serum (from Cytiva) was used in the presence of 5% CO2 at 37° C.
The next day, the test compounds (10 points having final concentrations in the range of 10 μM to 0.3 nM) and DMSO (from FUJIFILM Wako Pure Chemical Corporation), which was the solvent for the test compounds, as a negative control were diluted 500-fold with a fresh medium and were added at 20 μL per well. The cells were cultured overnight.
The next day, the culture supernatant was removed, and 4% paraformaldehyde phosphate buffer (from FUJIFILM Wako Pure Chemical Corporation) was added at 20 μL per well. The plates were allowed to stand for 30 minutes at room temperature to thus immobilize the cells. Then, the supernatant was removed, and 0.1% Triton X-100 (from Amersham Biosciences)-containing Phosphate buffered saline (PBS; from FUJIFILM Wako Pure Chemical Corporation) was added at 20 μL per well. After allowing to stand for 10 minutes at room temperature, the supernatant was removed. PBS was added at 25 μL per well, and the supernatant was removed to thus wash each well. The washing was performed twice in total. Next, the supernatant was removed, and 0.5% sodium dodecyl sulfate (SDS; from Invitrogen)-containing PBS was added at 20 μL per well. After allowing to stand at room temperature for 10 minutes, the supernatant was removed by a centrifugal operation (using a centrifugal dehydrator machine, the supernatant was removed by the same method hereinafter). PBS was added at 25 μL per well, and the supernatant was removed to thus wash each well. The washing was performed twice in total. The supernatant was removed, and blocking solution (Intercept Blocking Buffer; from Li-COR Biosciences) was added at 20 μL per well. After allowing to stand for 30 minutes at room temperature, the supernatant was removed, and a solution obtained by diluting anti-β-actin antibody (Anti-beta Actin antibody [mAbcam 8226]-Loading Control; from abcam) 1,000-fold with blocking solution and a solution obtained by diluting anti-Ras (G12D Mutant Specific) antibody (Ras (G12D Mutant Specific) (D8H7) Rabbit mAb #14429; from Cell Signaling Technology) and anti-β-actin antibody (from abcam) 1,000-fold with blocking solution were respectively added to positive control wells and the other wells at 20 μL per well as a primary antibody. The plate was allowed to stand overnight at 4° C.
The next day, the supernatant was removed. PBS was added at 25 μL per well, and the supernatant was removed to thus wash each well. The washing was performed twice in total. The supernatant was removed, and a solution obtained by diluting Donkey anti-Mouse IgG H&L (IRDye 680RD) (from Li-COR Biosciences) and Goat anti-Rabbit IgG H&L (IRDye 800CW) (from Li-COR Biosciences) 1,000-fold with blocking solution was added at 20 μL per well as a secondary antibody. After allowing to stand for 1 hour at room temperature, the supernatant was removed. PBS was added at 25 μL per well, and the supernatant was removed to thus wash each well. The washing was performed twice in total. After removing the supernatant, the plate was dried with air at room temperature for 2 hours or more, and the 700 nm and 800 nm fluorescent signals were measured with Aerius (from Li-COR Biosciences). […]

[1] = tested on: phosphorylation of threonine 202 (Thr202) and tyrosine 204 (Tyr204) of ERK; assay: ERK phosphorylation inhibitory effect by Cell ELISA in AsPC-1 (Test Example 2); format: cell-based, human; conditions: Homo sapiens, ASPC1, AsPC-1 cells, cultured overnight with compound; 1 μM trametinib taken as 0%
Procedure: Test Example 2: Evaluation of ERK Phosphorylation Inhibitory Effect on Human G12D Mutant KRAS-Positive Pancreatic Cancer Line AsPC-1
The ERK phosphorylation inhibitory effect of test compounds was evaluated by measuring phosphorylation of threonine 202 (Thr202) and tyrosine 204 (Tyr204) of ERK located downstream of the KRAS signal by Cell ELISA.
AsPC-1 cells were seeded on 384-well plates at 36 μL/well to give 2.0×10^4 cells per well. As for the cell culture conditions, RPMI 1640 medium containing 10% fetal bovine serum was used in the presence of 5% CO2 at 37° C.
The next day, the test compounds (10 points having final concentrations in the range of 10 μM to 0.3 nM), trametinib (MEK inhibitor) of a final concentration of 1 μM as positive control and DMSO, which was the solvent for the test compounds, as negative control were diluted 100-fold with a fresh medium and were added at 4 μL per well. The cells were cultured overnight. After culturing, 30% glyoxal solution (40% glyoxal [from Nacalai Tesque] was diluted with PBS) was quickly added at 30 μL per well, and the plate was allowed to stand for 60 minutes at room temperature to thus immobilize the cells. Then, the plate was centrifuged to remove the supernatant (using a centrifugal dehydrator machine, the supernatant was removed by the same method hereinafter), and 0.1% Triton X-100-containing PBS was added at 20 μL per well. After allowing to stand for 10 minutes at room temperature, the supernatant was removed, and the same operation was further repeated. Next, 0.5% SDS-containing PBS was added at 20 μL per well, and after allowing to stand at room temperature for 30 minutes, the supernatant was removed. Subsequently, blocking solution (Intercept Blocking Buffer) was added at 20 μL per well, and the plate was allowed to stand for 1 hour at room temperature. The supernatant was removed, and an ERK (Thr202/Tyr204) phosphorylation antibody (Phospho-p44/42 MAPK (Erk 1/2) (Thr202/Tyr204) (D13.14.4E) XP Rabbit mAb; from Cell Signaling Technology) diluted 2,500-fold with blocking solution was added at 15 μL per well as a primary antibody. The plates were allowed to stand at 4° C. overnight.
The next day, the supernatant was removed. 0.05% Tween-20 (from Thermo Fisher Scientific)-containing PBS was added at 50 μL per well, and the supernatant was removed to thus wash each well. The washing was performed three times in total. After washing, Goat anti-Rabbit IgG H&L (IRDye 800CW) diluted 1,000-fold with blocking solution was added at 15 μL per well as a secondary antibody, and the plates were allowed to stand for 1 hour at room temperature. The supernatant was removed, and each well was washed three times with 0.05% Tween-20-containing PBS in the same manner as after the primary antibody reaction. After removing the supernatant, the plates were dried with air at room temperature for 3 hours or more, and the 800-nm fluorescent signals were measured with Aerius.
With the signaling value at the time of addition of DMSO taken as 100% and with the signaling value at the time of addition of 1 μM trametinib taken as 0%, the 50% inhibitory concentration values (IC50) were calculated by Sigmoid-Emax nonlinear regression analysis.

[2] = tested on: human G12D mutant KRAS-positive pancreatic cancer line AsPC-1; assay: Non-anchorage-dependent cell growth inhibition, spheroid 3D cell culture (Test Example 3); format: cell-based; conditions: Homo sapiens, ASPC1, 144 h, AsPC-1 spheroid 3D culture, 6 days, CellTiter Glo 2.0
Procedure: Test Example 3: Evaluation of Non-Anchorage-Dependent Cell Growth Inhibitory Effect on Human G12D Mutant KRAS-Positive Pancreatic Cancer Line AsPC-1
The non-anchorage-dependent cell growth inhibitory effect of test compounds was evaluated by spheroid 3D cell culture.
AsPC-1 cells were seeded on low-cell-adhesive round bottom 384-well plates (PrimeSurface: from Sumitomo Bakelite) at 36 μL/well to give 5×10^2 cells per well. As for the cell culture conditions, RPMI 1640 medium containing 10% fetal bovine serum was used in the presence of 5% CO2 at 37° C.
The next day, the test compounds (10 or 6 points having final concentrations in the range of 10 μM to 0.3 nM) and DMSO, which was the solvent for the test compounds, as a negative control were diluted 100-fold with a fresh medium and were added at 4 μL per well. After culturing in the presence of 5% CO2 at 37° C. for 6 days, CellTiter Glo 2.0 (from Promega) was added at 20 μL per well. After stirring with a plate mixer (from FINEPCR) at room temperature for 1 hour, the luminescent signals were measured with ARVO X3 (from PerkinElmer).
With the signaling value in treatment with DMSO taken as 100% and with the signaling value in the medium alone without cells taken as 0%, the 50% inhibitory concentration values (IC50) were calculated by Sigmoid-Emax nonlinear regression analysis.

T1 sequence (P01116 1-188 isoform P01116-2 G12D): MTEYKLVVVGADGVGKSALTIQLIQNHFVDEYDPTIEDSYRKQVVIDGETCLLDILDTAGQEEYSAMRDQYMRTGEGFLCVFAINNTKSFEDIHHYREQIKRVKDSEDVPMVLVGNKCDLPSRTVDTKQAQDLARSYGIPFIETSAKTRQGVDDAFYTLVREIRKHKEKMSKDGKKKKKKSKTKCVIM

DC50 (KRAS G12D protein)	IC50 [1]	IC50 [2]	SMILES
47 nM	5 nM	5 nM	Cc1ncoc1-c1ccc([C@H](CO)NC(=O)[C@@H]2C[C@@H](O)CN2C(=O)[C@H](C(C)C)n2cc(-c3ccc(COc4c(-c5c(C)c(F)cc6[nH]ncc56)c(C5CC5)cc5c(N(C)[C@H]6CCNC6)nc(OC[C@@H]6CCCO6)nc45)cc3)nn2)cc1 (atropisomer, axis not shown) [Example 28]
99 nM	7 nM	7 nM	CO[C@@H](C)COc1nc(N(C)[C@H]2CCNC2)c2cc(C3CC3)c(-c3c(C)c(F)cc4[nH]ncc34)c(OCc3ccc(-c4cn([C@H](C(=O)N5C[C@H](O)C[C@H]5C(=O)N[C@@H](CO)c5ccc(N6CCOC6=O)cc5)C(C)C)nn4)cc3)c2n1 (atropisomer, axis not shown) [Example 15]
58 nM	32 nM	32 nM	Cc1ncsc1-c1ccc([C@H](CO)NC(=O)[C@@H]2C[C@@H](O)CN2C(=O)[C@H](C(C)C)n2cc(-c3ccc(COc4c(-c5c(C)c(F)cc6[nH]ncc56)c(C5CC5)cc5c(N(C)[C@H]6CCNC6)nc(OCCC(F)(F)F)nc45)cc3)nn2)cc1 (atropisomer, axis not shown) [Example 37]
48 nM	15 nM	26 nM	COCCOc1nc(N(C)[C@H]2CCNC2)c2cc(C3CC3)c(-c3c(C)c(F)cc4[nH]ncc34)c(OCc3ccc(-c4cn([C@H](C(=O)N5C[C@H](O)C[C@H]5C(=O)N[C@@H](CO)c5ccc(-c6scnc6C)cc5)C(C)C)nn4)cc3)c2n1 (atropisomer, axis not shown) [Example 24]
121 nM	10 nM	12 nM	Cc1c(F)cc2[nH]ncc2c1-c1c(C2CC2)cc2c(N(C)[C@H]3CCNC3)nc(OC[C@H]3CCCO3)nc2c1OCc1ccc(-c2cn([C@H](C(=O)N3C[C@H](O)C[C@H]3C(=O)N[C@@H](CO)c3ccc(-n4ccnc4C)cc3)C(C)C)nn2)cc1 (atropisomer, axis not shown) [Example 30]
59 nM	5 nM	5 nM	CO[C@@H](C)COc1cc(O[C@H]2CCNC2)c2cc(C3CC3)c(-c3c(C)c(F)cc4[nH]ncc34)c(OCc3ccc(-c4cn([C@H](C(=O)N5C[C@H](O)C[C@H]5C(=O)N[C@@H](CO)c5ccc(-c6scnc6C)cc5)C(C)C)nn4)cc3)c2n1 [Example 22]
24 nM	5 nM	8 nM	CO[C@@H](C)COc1nc(N[C@H]2CCNC2)c2cc(C3CC3)c(-c3c(C)c(F)cc4[nH]ncc34)c(OCc3ccc(-c4cn([C@H](C(=O)N5C[C@H](O)C[C@H]5C(=O)N[C@@H](CO)c5ccc(-c6scnc6C)cc5)C(C)C)nn4)cc3)c2n1 (atropisomer, axis not shown) [Example 6]
91 nM	95 nM	50 nM	Cc1ncsc1-c1ccc([C@H](CO)NC(=O)[C@@H]2C[C@@H](O)CN2C(=O)[C@H](C(C)C)n2cc(-c3ccc(COc4c(-c5c(C)c(F)cc6[nH]ncc56)c(C5CC5)cc5c(N(C)[C@H]6CCNC6)nc(O[C@@H](C)[C@H](C)O)nc45)cc3)nn2)cc1 (atropisomer, axis not shown) [Example 19]
11 nM	4 nM	4 nM	CO[C@@H](C)COc1nc(O[C@@H]2CCNC2)c2cc(C3CC3)c(-c3c(C)c(F)cc4[nH]ncc34)c(OCc3ccc(-c4cn([C@H](C(=O)N5C[C@H](O)C[C@H]5C(=O)N[C@@H](CO)c5ccc(-c6scnc6C)cc5)C(C)C)nn4)cc3)c2n1 (atropisomer, axis not shown) [Example 52]
25 nM	36 nM	36 nM	Cc1ncsc1-c1ccc([C@H](CO)NC(=O)[C@@H]2C[C@@H](O)CN2C(=O)[C@H](C(C)C)n2cc(-c3ccc(COc4c(-c5c(C)c(F)cc6[nH]ncc56)c(C5CC5)cc5c(N(C)[C@H]6CCNC6)nc(OCCCF)nc45)cc3)nn2)cc1 (atropisomer, axis not shown) [Example 38]
63 nM	12 nM	9 nM	Cc1ncsc1-c1ccc([C@H](CO)NC(=O)[C@@H]2C[C@@H](O)CN2C(=O)[C@H](C(C)C)n2cc(-c3ccc(COc4c(-c5c(C)c(F)cc6[nH]ncc56)c(C5CC5)cc5c(N(C)[C@H]6CCNC6)nc(OC[C@H](C)F)nc45)cc3)nn2)cc1 (atropisomer, axis not shown) [Example 35]
